{
  "source": "ChEMBL document CHEMBL1156482",
  "about": "“Molecular mechanism of action of monocyclam versus bicyclam non-peptide antagonists in the CXCR4 chemokine receptor” (J Biol Chem, 2007)",
  "key": {"[1]": {"biological_target": "C-X-C chemokine receptor type 4 (Homo sapiens, UniProt P61073)", "sequence (P61073 whole entry)": "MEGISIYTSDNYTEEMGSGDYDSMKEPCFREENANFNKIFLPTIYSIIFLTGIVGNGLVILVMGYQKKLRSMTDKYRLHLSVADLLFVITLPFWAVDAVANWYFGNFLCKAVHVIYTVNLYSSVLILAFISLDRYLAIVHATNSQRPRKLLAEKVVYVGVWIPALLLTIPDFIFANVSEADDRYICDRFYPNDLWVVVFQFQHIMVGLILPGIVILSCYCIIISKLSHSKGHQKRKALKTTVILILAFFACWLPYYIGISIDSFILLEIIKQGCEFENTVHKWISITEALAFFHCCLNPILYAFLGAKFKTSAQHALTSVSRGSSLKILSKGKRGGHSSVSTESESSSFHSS", "test": "Antagonist activity at human wild type CXCR4 expressed in COS7 cells coexpressing G protein Gqi4myr assessed as inhibition of CXCL12-induced phosphatidylinositol turnover", "assay_type": "functional, cell-based, COS-7"}, "[2]": {"system": "C-X-C chemokine receptor type 4 (Homo sapiens), P61073 [H113A]", "sequence (P61073 whole entry H113A)": "as the sequence (P61073 whole entry) above, with H113A counted along it", "test": "(§1) Antagonist activity at human CXCR4 H113A mutant expressed in COS7 cells coexpressing G protein Gqi4myr assessed as inhibition of CXCL12-induced phosphatidylinositol turnover", "assay_type": "functional, cell-based", "settings": "COS-7"}, "[3]": {"biological_target": "C-X-C chemokine receptor type 4 (Homo sapiens, UniProt P61073, H113A)", "sequence (P61073 whole entry H113A)": "as the sequence (P61073 whole entry) above, with H113A counted along it", "test": "as §1", "assay_type": "functional, cell-based, COS-7"}, "[4]": {"system": "C-X-C chemokine receptor type 4 (Homo sapiens), P61073 [L120F]", "sequence (P61073 whole entry L120F)": "as the sequence (P61073 whole entry) above, with L120F counted along it", "test": "(§2) Antagonist activity at human CXCR4 L120F mutant expressed in COS7 cells coexpressing G protein Gqi4myr assessed as inhibition of CXCL12-induced phosphatidylinositol turnover", "assay_type": "functional, cell-based", "settings": "COS-7"}, "[5]": {"biological_target": "C-X-C chemokine receptor type 4 (Homo sapiens, UniProt P61073, L120F)", "sequence (P61073 whole entry L120F)": "as the sequence (P61073 whole entry) above, with L120F counted along it", "test": "as §2", "assay_type": "functional, cell-based, COS-7"}, "[6]": {"system": "C-X-C chemokine receptor type 4 (Homo sapiens), P61073 [D171N]", "sequence (P61073 whole entry D171N)": "as the sequence (P61073 whole entry) above, with D171N counted along it", "test": "(§3) Antagonist activity at human CXCR4 D171N mutant expressed in COS7 cells coexpressing G protein Gqi4myr assessed as inhibition of CXCL12-induced phosphatidylinositol turnover", "assay_type": "functional, cell-based", "settings": "COS-7"}, "[7]": {"biological_target": "C-X-C chemokine receptor type 4 (Homo sapiens, UniProt P61073, D171N)", "sequence (P61073 whole entry D171N)": "as the sequence (P61073 whole entry) above, with D171N counted along it", "test": "as §3", "assay_type": "functional, cell-based, COS-7"}, "[8]": {"system": "C-X-C chemokine receptor type 4 (Homo sapiens), P61073 [F172A]", "sequence (P61073 whole entry F172A)": "as the sequence (P61073 whole entry) above, with F172A counted along it", "test": "(§4) Antagonist activity at human CXCR4 F172A mutant expressed in COS7 cells coexpressing G protein Gqi4myr assessed as inhibition of CXCL12-induced phosphatidylinositol turnover", "assay_type": "functional, cell-based", "settings": "COS-7"}, "[9]": {"biological_target": "C-X-C chemokine receptor type 4 (Homo sapiens, UniProt P61073, F172A)", "sequence (P61073 whole entry F172A)": "as the sequence (P61073 whole entry) above, with F172A counted along it", "test": "as §4", "assay_type": "functional, cell-based, COS-7"}, "[10]": {"system": "C-X-C chemokine receptor type 4 (Homo sapiens), P61073 [A175F]", "sequence (P61073 whole entry A175F)": "as the sequence (P61073 whole entry) above, with A175F counted along it", "test": "(§5) Antagonist activity at human CXCR4 A175F mutant expressed in COS7 cells coexpressing G protein Gqi4myr assessed as inhibition of CXCL12-induced phosphatidylinositol turnover", "assay_type": "functional, cell-based", "settings": "COS-7"}, "[11]": {"biological_target": "C-X-C chemokine receptor type 4 (Homo sapiens, UniProt P61073, A175F)", "sequence (P61073 whole entry A175F)": "as the sequence (P61073 whole entry) above, with A175F counted along it", "test": "as §5", "assay_type": "functional, cell-based, COS-7"}, "[12]": {"system": "C-X-C chemokine receptor type 4 (Homo sapiens), P61073 [V196A]", "sequence (P61073 whole entry V196A)": "as the sequence (P61073 whole entry) above, with V196A counted along it", "test": "(§6) Antagonist activity at human CXCR4 V196A mutant expressed in COS7 cells coexpressing G protein Gqi4myr assessed as inhibition of CXCL12-induced phosphatidylinositol turnover", "assay_type": "functional, cell-based", "settings": "COS-7"}, "[13]": {"biological_target": "C-X-C chemokine receptor type 4 (Homo sapiens, UniProt P61073, V196A)", "sequence (P61073 whole entry V196A)": "as the sequence (P61073 whole entry) above, with V196A counted along it", "test": "as §6", "assay_type": "functional, cell-based, COS-7"}, "[14]": {"system": "C-X-C chemokine receptor type 4 (Homo sapiens), P61073 [Q200W]", "sequence (P61073 whole entry Q200W)": "as the sequence (P61073 whole entry) above, with Q200W counted along it", "test": "(§7) Antagonist activity at human CXCR4 Q200W mutant expressed in COS7 cells coexpressing G protein Gqi4myr assessed as inhibition of CXCL12-induced phosphatidylinositol turnover", "assay_type": "functional, cell-based", "settings": "COS-7"}, "[15]": {"biological_target": "C-X-C chemokine receptor type 4 (Homo sapiens, UniProt P61073, Q200W)", "sequence (P61073 whole entry Q200W)": "as the sequence (P61073 whole entry) above, with Q200W counted along it", "test": "as §7", "assay_type": "functional, cell-based, COS-7"}, "[16]": {"system": "C-X-C chemokine receptor type 4 (Homo sapiens), P61073 [Q200A]", "sequence (P61073 whole entry Q200A)": "as the sequence (P61073 whole entry) above, with Q200A counted along it", "test": "(§8) Antagonist activity at human CXCR4 Q200A mutant expressed in COS7 cells coexpressing G protein Gqi4myr assessed as inhibition of CXCL12-induced phosphatidylinositol turnover", "assay_type": "functional, cell-based", "settings": "COS-7"}, "[17]": {"biological_target": "C-X-C chemokine receptor type 4 (Homo sapiens, UniProt P61073, Q200A)", "sequence (P61073 whole entry Q200A)": "as the sequence (P61073 whole entry) above, with Q200A counted along it", "test": "as §8", "assay_type": "functional, cell-based, COS-7"}, "[18]": {"system": "C-X-C chemokine receptor type 4 (Homo sapiens), P61073 [H203A]", "sequence (P61073 whole entry H203A)": "as the sequence (P61073 whole entry) above, with H203A counted along it", "test": "(§9) Antagonist activity at human CXCR4 H203A mutant expressed in COS7 cells coexpressing G protein Gqi4myr assessed as inhibition of CXCL12-induced phosphatidylinositol turnover", "assay_type": "functional, cell-based", "settings": "COS-7"}, "[19]": {"biological_target": "C-X-C chemokine receptor type 4 (Homo sapiens, UniProt P61073, H203A)", "sequence (P61073 whole entry H203A)": "as the sequence (P61073 whole entry) above, with H203A counted along it", "test": "as §9", "assay_type": "functional, cell-based, COS-7"}, "[20]": {"system": "C-X-C chemokine receptor type 4 (Homo sapiens), P61073 [Y255A]", "sequence (P61073 whole entry Y255A)": "as the sequence (P61073 whole entry) above, with Y255A counted along it", "test": "(§10) Antagonist activity at human CXCR4 Y255A mutant expressed in COS7 cells coexpressing G protein Gqi4myr assessed as inhibition of CXCL12-induced phosphatidylinositol turnover", "assay_type": "functional, cell-based", "settings": "COS-7"}, "[21]": {"biological_target": "C-X-C chemokine receptor type 4 (Homo sapiens, UniProt P61073, Y255A)", "sequence (P61073 whole entry Y255A)": "as the sequence (P61073 whole entry) above, with Y255A counted along it", "test": "as §10", "assay_type": "functional, cell-based, COS-7"}, "[22]": {"system": "C-X-C chemokine receptor type 4 (Homo sapiens), P61073 [I259A]", "sequence (P61073 whole entry I259A, the tested form may be a part)": "as the sequence (P61073 whole entry) above, with I259A counted along it", "test": "(§11) Antagonist activity at transmembrane domain 6 of human CXCR4 I259A mutant expressed in COS7 cells coexpressing G protein Gqi4myr assessed as inhibition of CXCL12-induced phosphatidylinositol turnover", "assay_type": "functional, cell-based", "settings": "COS-7"}, "[23]": {"biological_target": "C-X-C chemokine receptor type 4 (Homo sapiens, UniProt P61073, I259A)", "sequence (P61073 whole entry I259A)": "as the sequence (P61073 whole entry) above, with I259A counted along it", "test": "as §11", "assay_type": "functional, cell-based, COS-7"}, "[24]": {"system": "C-X-C chemokine receptor type 4 (Homo sapiens), P61073 [I259W]", "sequence (P61073 whole entry I259W)": "as the sequence (P61073 whole entry) above, with I259W counted along it", "test": "(§12) Antagonist activity at human CXCR4 I259W mutant expressed in COS7 cells coexpressing G protein Gqi4myr assessed as inhibition of CXCL12-induced phosphatidylinositol turnover", "assay_type": "functional, cell-based", "settings": "COS-7"}, "[25]": {"biological_target": "C-X-C chemokine receptor type 4 (Homo sapiens, UniProt P61073, I259W)", "sequence (P61073 whole entry I259W)": "as the sequence (P61073 whole entry) above, with I259W counted along it", "test": "as §12", "assay_type": "functional, cell-based, COS-7"}, "[26]": {"system": "C-X-C chemokine receptor type 4 (Homo sapiens), P61073 [D262N]", "sequence (P61073 whole entry D262N)": "as the sequence (P61073 whole entry) above, with D262N counted along it", "test": "(§13) Antagonist activity at human CXCR4 D262N mutant expressed in COS7 cells coexpressing G protein Gqi4myr assessed as inhibition of CXCL12-induced phosphatidylinositol turnover", "assay_type": "functional, cell-based", "settings": "COS-7"}, "[27]": {"biological_target": "C-X-C chemokine receptor type 4 (Homo sapiens, UniProt P61073, D262N)", "sequence (P61073 whole entry D262N)": "as the sequence (P61073 whole entry) above, with D262N counted along it", "test": "as §13", "assay_type": "functional, cell-based, COS-7"}, "[28]": {"system": "C-X-C chemokine receptor type 4 (Homo sapiens), P61073 [H281A]", "sequence (P61073 whole entry H281A)": "as the sequence (P61073 whole entry) above, with H281A counted along it", "test": "(§14) Antagonist activity at human CXCR4 H281A mutant expressed in COS7 cells coexpressing G protein Gqi4myr assessed as inhibition of CXCL12-induced phosphatidylinositol turnover", "assay_type": "functional, cell-based", "settings": "COS-7"}, "[29]": {"biological_target": "C-X-C chemokine receptor type 4 (Homo sapiens, UniProt P61073, H281A)", "sequence (P61073 whole entry H281A)": "as the sequence (P61073 whole entry) above, with H281A counted along it", "test": "as §14", "assay_type": "functional, cell-based, COS-7"}, "[30]": {"system": "C-X-C chemokine receptor type 4 (Homo sapiens), P61073 [I284A]", "sequence (P61073 whole entry I284A)": "as the sequence (P61073 whole entry) above, with I284A counted along it", "test": "(§15) Antagonist activity at human CXCR4 I284A mutant expressed in COS7 cells coexpressing G protein Gqi4myr assessed as inhibition of CXCL12-induced phosphatidylinositol turnover", "assay_type": "functional, cell-based", "settings": "COS-7"}, "[31]": {"biological_target": "C-X-C chemokine receptor type 4 (Homo sapiens, UniProt P61073, I284A)", "sequence (P61073 whole entry I284A)": "as the sequence (P61073 whole entry) above, with I284A counted along it", "test": "as §15", "assay_type": "functional, cell-based, COS-7"}, "[32]": {"system": "C-X-C chemokine receptor type 4 (Homo sapiens), P61073 [T287A]", "sequence (P61073 whole entry T287A)": "as the sequence (P61073 whole entry) above, with T287A counted along it", "test": "(§16) Antagonist activity at human CXCR4 T287A mutant expressed in COS7 cells coexpressing G protein Gqi4myr assessed as inhibition of CXCL12-induced phosphatidylinositol turnover", "assay_type": "functional, cell-based", "settings": "COS-7"}, "[33]": {"biological_target": "C-X-C chemokine receptor type 4 (Homo sapiens, UniProt P61073, T287A)", "sequence (P61073 whole entry T287A)": "as the sequence (P61073 whole entry) above, with T287A counted along it", "test": "as §16", "assay_type": "functional, cell-based, COS-7"}, "[34]": {"system": "C-X-C chemokine receptor type 4 (Homo sapiens), P61073 [E288A]", "sequence (P61073 whole entry E288A)": "as the sequence (P61073 whole entry) above, with E288A counted along it", "test": "(§17) Antagonist activity at human CXCR4 E288A mutant expressed in COS7 cells coexpressing G protein Gqi4myr assessed as inhibition of CXCL12-induced phosphatidylinositol turnover", "assay_type": "functional, cell-based", "settings": "COS-7"}, "[35]": {"biological_target": "C-X-C chemokine receptor type 4 (Homo sapiens, UniProt P61073, E288A)", "sequence (P61073 whole entry E288A)": "as the sequence (P61073 whole entry) above, with E288A counted along it", "test": "as §17", "assay_type": "functional, cell-based, COS-7"}},
  "data": [
    {"smiles": "c1ccc(CNCc2ccc(CN3CCCNCCNCCCNCC3)cc2)cc1", "values": [
      {"measurement": "Ki", "setting": "[1]", "result": 1.7, "unit": "µM"},
      {"measurement": "logIC50", "setting": "[1]; COS-7", "result": -5.76},
      {"measurement": "logIC50", "setting": "[2]", "result": -4.74},
      {"measurement": "Ki", "setting": "[3]", "result": 18, "unit": "µM"},
      {"measurement": "logIC50", "setting": "[4]", "result": -6.36},
      {"measurement": "Ki", "setting": "[5]", "result": 0.44, "unit": "µM"},
      {"measurement": "logIC50", "setting": "[6]", "result": -4.85},
      {"measurement": "Ki", "setting": "[7]", "result": 14, "unit": "µM"},
      {"measurement": "logIC50", "setting": "[8]", "result": -5.92},
      {"measurement": "Ki", "setting": "[9]", "result": 0.17, "unit": "µM"},
      {"measurement": "logIC50", "setting": "[10]", "result": -3.89},
      {"measurement": "Ki", "setting": "[11]", "result": 128, "unit": "µM"},
      {"measurement": "logIC50", "setting": "[12]", "result": -5.88},
      {"measurement": "Ki", "setting": "[13]", "result": 1.3, "unit": "µM"},
      {"measurement": "logIC50", "setting": "[14]", "result": -5.14},
      {"measurement": "Ki", "setting": "[15]", "result": 7.2, "unit": "µM"},
      {"measurement": "logIC50", "setting": "[16]", "result": -4.91},
      {"measurement": "Ki", "setting": "[17]", "result": 12, "unit": "µM"},
      {"measurement": "logIC50", "setting": "[18]", "result": -5.14},
      {"measurement": "Ki", "setting": "[19]", "result": 7.2, "unit": "µM"},
      {"measurement": "logIC50", "setting": "[20]", "result": -5.05},
      {"measurement": "Ki", "setting": "[21]", "result": 8.8, "unit": "µM"},
      {"measurement": "logIC50", "setting": "[22]", "result": -6.04},
      {"measurement": "Ki", "setting": "[23]", "result": 0.91, "unit": "µM"},
      {"measurement": "logIC50", "setting": "[24]", "result": -5.5},
      {"measurement": "Ki", "setting": "[25]", "result": 3.1, "unit": "µM"},
      {"measurement": "logIC50", "setting": "[26]", "result": -5.64},
      {"measurement": "Ki", "setting": "[27]", "result": 2.3, "unit": "µM"},
      {"measurement": "logIC50", "setting": "[28]", "result": -5.75},
      {"measurement": "Ki", "setting": "[29]", "result": 1.8, "unit": "µM"},
      {"measurement": "logIC50", "setting": "[30]", "result": -6.38},
      {"measurement": "Ki", "setting": "[31]", "result": 0.42, "unit": "µM"},
      {"measurement": "logIC50", "setting": "[32]", "result": -6.46},
      {"measurement": "Ki", "setting": "[33]", "result": 0.34, "unit": "µM"},
      {"measurement": "logIC50", "setting": "[34]", "result": -4.96},
      {"measurement": "Ki", "setting": "[35]", "result": 11, "unit": "µM"}
    ]}
  ]
}
